Test results as given in ChEMBL document CHEMBL4630908 (2021).
The source made the active and inactive calls. The calls are words filed in the database; no cut-off is given here.

Legend:
Mu-type opioid receptor [1] = target: T1, Mu-type opioid receptor (Homo sapiens, UniProt P35372); settings: Compound concentration 10.0 uM
[2] = target: T2, Bromodomain-containing protein 2 (Homo sapiens, UniProt P25440); test: BET mutant TR-FRET assay (BRD2 BD2)
Rattus norvegicus = species on record: Rattus norvegicus; settings: Compound concentration 10.0 uM
[3] = target: T2, Bromodomain-containing protein 2; test: BRD2 BD1 Bromoscan (DiscoverX)
Target sequence in this assay (P25440 whole entry): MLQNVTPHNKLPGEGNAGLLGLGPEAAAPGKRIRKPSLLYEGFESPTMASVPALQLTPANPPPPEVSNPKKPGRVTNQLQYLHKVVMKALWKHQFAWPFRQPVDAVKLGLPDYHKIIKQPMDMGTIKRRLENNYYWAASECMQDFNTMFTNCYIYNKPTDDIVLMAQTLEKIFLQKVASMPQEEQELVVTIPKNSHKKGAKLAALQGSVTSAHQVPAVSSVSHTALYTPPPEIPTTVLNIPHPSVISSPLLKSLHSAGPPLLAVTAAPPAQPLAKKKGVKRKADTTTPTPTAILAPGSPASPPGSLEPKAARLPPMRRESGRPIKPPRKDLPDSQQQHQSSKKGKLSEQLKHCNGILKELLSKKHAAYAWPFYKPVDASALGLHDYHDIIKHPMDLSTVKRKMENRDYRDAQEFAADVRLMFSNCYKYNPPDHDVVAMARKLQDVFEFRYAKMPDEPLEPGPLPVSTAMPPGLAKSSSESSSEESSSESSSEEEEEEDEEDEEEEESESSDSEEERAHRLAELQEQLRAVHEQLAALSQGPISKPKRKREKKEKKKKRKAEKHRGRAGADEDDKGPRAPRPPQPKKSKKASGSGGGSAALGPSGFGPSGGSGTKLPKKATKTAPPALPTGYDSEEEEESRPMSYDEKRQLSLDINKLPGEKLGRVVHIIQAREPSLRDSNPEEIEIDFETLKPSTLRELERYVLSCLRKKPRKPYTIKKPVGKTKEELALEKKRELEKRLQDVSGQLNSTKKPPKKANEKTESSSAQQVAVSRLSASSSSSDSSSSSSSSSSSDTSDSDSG

[4] = target: Amine oxidase [flavin-containing] A (Homo sapiens, UniProt P21397); test: (§1) Cross screening panel
Mu-type opioid receptor [5] = target: T1, Mu-type opioid receptor; test: as §1
[6] = target: Potassium voltage-gated channel subfamily A member 5 (Homo sapiens, UniProt P22460); test: as §1
[7] = target: Sodium channel protein type 5 subunit alpha (Homo sapiens, UniProt Q14524); test: as §1
[8] = target: Glutamate receptor ionotropic, NMDA 2B (Homo sapiens, UniProt Q13224); test: as §1
[9] = target: Sodium-dependent serotonin transporter (Homo sapiens, UniProt P31645); test: as §1
[10] = target: Voltage-dependent L-type calcium channel subunit alpha-1C (Homo sapiens, UniProt Q13936); test: as §1
[11] = target: Muscarinic acetylcholine receptor M1 (Homo sapiens, UniProt P11229); test: as §1
[12] = target: Beta-2 adrenergic receptor (Homo sapiens, UniProt P07550); test: as §1
[13] = target: 5-hydroxytryptamine receptor 2C (Homo sapiens, UniProt P28335); test: as §1
[14] = target: T3, 5-hydroxytryptamine receptor 1B (Homo sapiens, UniProt P28222); test: as §1
[15] = target: Phosphatidylinositol 4,5-bisphosphate 3-kinase catalytic subunit gamma isoform (Homo sapiens, UniProt P48736); test: as §1
[16] = target: 5-hydroxytryptamine receptor 3A (Homo sapiens, UniProt P46098); test: as §1
Acetylcholinesterase = Acetylcholinesterase (Homo sapiens, UniProt P22303); test: as §1
Aurora kinase B = Aurora kinase B (Homo sapiens, UniProt Q96GD4); test: as §1
[17] = target: T4, Kappa-type opioid receptor (Homo sapiens, UniProt P41145); test: as §1
[18] = target: Aryl hydrocarbon receptor (Homo sapiens, UniProt P35869); test: as §1
[19] = target: cGMP-inhibited 3',5'-cyclic phosphodiesterase 3A (Homo sapiens, UniProt Q14432); test: as §1
D(2) dopamine receptor [20] = target: T5, D(2) dopamine receptor (Homo sapiens, UniProt P14416); test: as §1
Vasopressin V1a receptor = Vasopressin V1a receptor (Homo sapiens, UniProt P37288); test: as §1
D(1A) dopamine receptor = D(1A) dopamine receptor (Homo sapiens, UniProt P21728); test: as §1
[21] = target: Solute carrier organic anion transporter family member 1B1 (Homo sapiens, UniProt Q9Y6L6); test: as §1
[22] = target: Prostaglandin G/H synthase 2 (Homo sapiens, UniProt P35354); test: as §1
Adenosine receptor A2a = Adenosine receptor A2a (Homo sapiens, UniProt P29274); test: as §1
Histamine H1 receptor = Histamine H1 receptor (Homo sapiens, UniProt P35367); test: as §1
Substance-P receptor = Substance-P receptor (Homo sapiens, UniProt P25103); test: as §1
[23] = target: Bromodomain-containing protein 1 (Homo sapiens, UniProt O95696); test: BRD1 DiscoverX BROMOscan
[24] = target: 5-hydroxytryptamine receptor 2B (Homo sapiens) (UniProt P41595); settings: Compound concentration 10.0 uM
D(2) dopamine receptor [25] = target: T5, D(2) dopamine receptor; settings: Compound concentration 10.0 uM
[26] = target: 5-hydroxytryptamine receptor 5A (Homo sapiens) (UniProt P47898); settings: Compound concentration 10.0 uM
[27] = target: T3, 5-hydroxytryptamine receptor 1B; settings: Compound concentration 10.0 uM
[28] = target: Nucleosome-remodeling factor subunit BPTF (Homo sapiens, UniProt Q12830); test: FALZ DiscoverX BROMOscan
[29] = target: Transcription intermediary factor 1-alpha (Homo sapiens, UniProt O15164); test: TRIM24(PHD,Bromo.) DiscoverX BROMOscan
[30] = target: Sigma intracellular receptor 2 (Homo sapiens) (UniProt Q5BJF2); settings: Compound concentration 10.0 uM
[31] = target: T2, Bromodomain-containing protein 2; test: BRD2(1) DiscoverX BROMOscan
Target sequence in this assay (P25440 whole entry): as above

[32] = target: Bromodomain adjacent to zinc finger domain protein 2A (Homo sapiens, UniProt Q9UIF9); test: BAZ2A DiscoverX BROMOscan
[33] = target: Alpha-2C adrenergic receptor (Homo sapiens) (UniProt P18825); settings: Compound concentration 10.0 uM
[34] = target: 5-hydroxytryptamine receptor 7 (Homo sapiens) (UniProt P34969); settings: Compound concentration 10.0 uM
[35] = target: Muscarinic acetylcholine receptor M5 (Homo sapiens) (UniProt P08912); settings: Compound concentration 10.0 uM
[36] = target: T6, Bromodomain-containing protein 3 (Homo sapiens, UniProt Q15059); test: TR-FRET assay (BRD3 BD2)
Protein polybromo-1 = Protein polybromo-1 (Homo sapiens, UniProt Q86U86); test: PBRM1(5) DiscoverX BROMOscan
[37] = target: T6, Bromodomain-containing protein 3; test: BRD3(1) DiscoverX BROMOscan
[38] = target: 5-hydroxytryptamine receptor 1D (Homo sapiens, UniProt P28221); test: GPCRScan assay: inhibition of 5-HT1D; parameters: radioligand conc. used [nm] 1.0 – 2.0, parental cells HEKT
[39] = target: D(1B) dopamine receptor (Homo sapiens) (UniProt P21918); settings: Compound concentration 10.0 uM
[40] = target: Bromodomain-containing protein 7 (Homo sapiens, UniProt Q9NPI1); test: BRD7 DiscoverX BROMOscan
[41] = target: Transcription initiation factor TFIID subunit 1-like (Homo sapiens, UniProt Q8IZX4); test: TAF1L(2) DiscoverX BROMOscan
[42] = target: Alpha-2B adrenergic receptor (Homo sapiens) (UniProt P18089); settings: Compound concentration 10.0 uM
[43] = target: Muscarinic acetylcholine receptor M2 (Homo sapiens) (UniProt P08172); settings: Compound concentration 10.0 uM
[44] = target: Bromodomain-containing protein 8 (Homo sapiens, UniProt Q9H0E9); test: BRD8(2) DiscoverX BROMOscan
[45] = target: T6, Bromodomain-containing protein 3; test: BRD3(2) DiscoverX BROMOscan
[46] = target: T4, Kappa-type opioid receptor; settings: Compound concentration 10.0 uM
[47] = target: T2, Bromodomain-containing protein 2; test: BRD2(1,2) DiscoverX BROMOscan
Target sequence in this assay (P25440 whole entry): as above

[48] = target: T2, Bromodomain-containing protein 2; test: TR-FRET assay (BRD2 BD2)
Target sequence in this assay (P25440 whole entry): as above

[49] = target: ATPase family AAA domain-containing protein 2B (Homo sapiens, UniProt Q9ULI0); test: ATAD2B DiscoverX BROMOscan

T3 sequence (P28222 whole entry, canonical isoform): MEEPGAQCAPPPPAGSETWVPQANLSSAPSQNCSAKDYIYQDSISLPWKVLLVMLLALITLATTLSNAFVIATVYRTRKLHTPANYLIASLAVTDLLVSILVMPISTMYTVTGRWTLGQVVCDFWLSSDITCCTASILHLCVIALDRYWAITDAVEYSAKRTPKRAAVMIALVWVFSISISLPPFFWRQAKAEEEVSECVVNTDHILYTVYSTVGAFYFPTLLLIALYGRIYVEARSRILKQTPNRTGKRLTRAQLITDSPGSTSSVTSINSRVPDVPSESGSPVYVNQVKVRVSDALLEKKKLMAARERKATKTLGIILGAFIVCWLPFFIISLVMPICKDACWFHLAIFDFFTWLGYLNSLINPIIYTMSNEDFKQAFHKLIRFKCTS
T5 sequence (P14416 whole entry): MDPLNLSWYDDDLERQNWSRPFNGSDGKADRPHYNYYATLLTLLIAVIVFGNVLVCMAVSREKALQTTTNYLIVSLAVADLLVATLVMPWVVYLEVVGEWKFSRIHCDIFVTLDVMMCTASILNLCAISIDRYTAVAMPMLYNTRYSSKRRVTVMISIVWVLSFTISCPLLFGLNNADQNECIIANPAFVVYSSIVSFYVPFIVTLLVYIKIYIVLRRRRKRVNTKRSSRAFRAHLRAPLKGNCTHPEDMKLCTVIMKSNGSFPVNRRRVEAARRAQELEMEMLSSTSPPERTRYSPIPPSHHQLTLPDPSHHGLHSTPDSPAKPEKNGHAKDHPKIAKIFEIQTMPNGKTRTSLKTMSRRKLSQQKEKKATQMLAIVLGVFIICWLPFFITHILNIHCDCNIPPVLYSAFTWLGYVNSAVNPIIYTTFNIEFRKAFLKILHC
T6 sequence (Q15059 whole entry): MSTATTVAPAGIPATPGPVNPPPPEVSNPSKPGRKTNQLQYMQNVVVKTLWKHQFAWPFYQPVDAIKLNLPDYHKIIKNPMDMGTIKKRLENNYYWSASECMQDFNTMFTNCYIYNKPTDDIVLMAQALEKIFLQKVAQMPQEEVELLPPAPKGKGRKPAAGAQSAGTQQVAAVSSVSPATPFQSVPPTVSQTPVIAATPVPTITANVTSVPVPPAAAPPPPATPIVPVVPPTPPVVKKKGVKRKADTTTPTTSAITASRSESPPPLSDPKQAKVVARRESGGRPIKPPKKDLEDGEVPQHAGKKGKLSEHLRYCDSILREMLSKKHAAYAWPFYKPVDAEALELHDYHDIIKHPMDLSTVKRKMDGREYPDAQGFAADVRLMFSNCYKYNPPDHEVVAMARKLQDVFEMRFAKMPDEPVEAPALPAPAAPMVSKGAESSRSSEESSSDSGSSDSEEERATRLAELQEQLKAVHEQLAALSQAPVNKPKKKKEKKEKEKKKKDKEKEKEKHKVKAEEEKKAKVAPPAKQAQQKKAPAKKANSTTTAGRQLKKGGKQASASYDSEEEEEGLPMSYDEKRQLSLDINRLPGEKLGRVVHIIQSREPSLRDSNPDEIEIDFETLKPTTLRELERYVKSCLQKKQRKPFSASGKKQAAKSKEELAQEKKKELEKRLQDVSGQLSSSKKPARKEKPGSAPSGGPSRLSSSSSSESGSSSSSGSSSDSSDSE
T4 sequence (P41145 whole entry): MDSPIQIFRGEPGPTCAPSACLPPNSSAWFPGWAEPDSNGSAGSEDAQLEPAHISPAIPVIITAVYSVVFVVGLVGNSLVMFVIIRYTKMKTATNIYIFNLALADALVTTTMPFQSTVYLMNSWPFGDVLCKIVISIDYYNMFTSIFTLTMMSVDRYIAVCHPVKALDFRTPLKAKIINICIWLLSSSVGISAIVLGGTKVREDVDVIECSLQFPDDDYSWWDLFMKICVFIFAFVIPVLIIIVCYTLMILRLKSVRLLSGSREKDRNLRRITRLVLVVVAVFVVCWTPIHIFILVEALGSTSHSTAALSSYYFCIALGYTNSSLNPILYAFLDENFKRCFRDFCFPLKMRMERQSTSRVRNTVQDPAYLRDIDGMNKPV
T1 sequence (P35372 whole entry): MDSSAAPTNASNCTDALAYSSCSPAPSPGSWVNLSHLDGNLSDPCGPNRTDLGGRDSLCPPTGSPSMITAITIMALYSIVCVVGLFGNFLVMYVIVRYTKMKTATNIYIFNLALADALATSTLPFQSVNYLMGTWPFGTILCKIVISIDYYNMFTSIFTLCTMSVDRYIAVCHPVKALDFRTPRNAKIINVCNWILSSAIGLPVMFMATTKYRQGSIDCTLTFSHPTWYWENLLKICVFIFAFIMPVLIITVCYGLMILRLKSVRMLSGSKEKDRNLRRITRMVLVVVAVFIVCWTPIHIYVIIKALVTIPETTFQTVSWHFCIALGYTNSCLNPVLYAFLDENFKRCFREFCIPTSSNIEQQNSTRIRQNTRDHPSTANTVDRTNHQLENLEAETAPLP
Sequence of Beta-2 adrenergic receptor (P07550 whole entry): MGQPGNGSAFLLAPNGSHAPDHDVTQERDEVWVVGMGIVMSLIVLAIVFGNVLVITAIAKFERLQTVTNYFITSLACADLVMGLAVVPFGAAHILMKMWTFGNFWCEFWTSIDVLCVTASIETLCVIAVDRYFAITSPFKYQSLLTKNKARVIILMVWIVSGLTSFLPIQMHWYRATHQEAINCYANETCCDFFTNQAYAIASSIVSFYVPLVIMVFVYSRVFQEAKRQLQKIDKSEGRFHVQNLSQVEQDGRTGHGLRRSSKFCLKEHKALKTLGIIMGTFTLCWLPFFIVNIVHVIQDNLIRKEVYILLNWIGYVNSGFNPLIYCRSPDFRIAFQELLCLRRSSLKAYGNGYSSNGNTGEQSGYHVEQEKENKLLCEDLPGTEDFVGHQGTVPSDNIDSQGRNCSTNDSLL
Sequence of Muscarinic acetylcholine receptor M1 (P11229 whole entry): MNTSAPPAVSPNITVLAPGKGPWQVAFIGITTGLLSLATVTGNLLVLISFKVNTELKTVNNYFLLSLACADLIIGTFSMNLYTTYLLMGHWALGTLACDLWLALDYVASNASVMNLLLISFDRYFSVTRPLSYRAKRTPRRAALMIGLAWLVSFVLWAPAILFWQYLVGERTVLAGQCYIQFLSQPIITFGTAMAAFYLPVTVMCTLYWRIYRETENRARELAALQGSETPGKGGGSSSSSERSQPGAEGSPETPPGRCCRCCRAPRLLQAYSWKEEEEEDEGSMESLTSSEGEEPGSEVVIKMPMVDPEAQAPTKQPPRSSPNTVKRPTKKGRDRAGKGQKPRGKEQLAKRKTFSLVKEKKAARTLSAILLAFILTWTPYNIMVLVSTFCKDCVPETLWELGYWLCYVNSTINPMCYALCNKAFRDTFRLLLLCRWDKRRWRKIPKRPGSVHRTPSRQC
Sequence of 5-hydroxytryptamine receptor 3A (P46098 whole entry): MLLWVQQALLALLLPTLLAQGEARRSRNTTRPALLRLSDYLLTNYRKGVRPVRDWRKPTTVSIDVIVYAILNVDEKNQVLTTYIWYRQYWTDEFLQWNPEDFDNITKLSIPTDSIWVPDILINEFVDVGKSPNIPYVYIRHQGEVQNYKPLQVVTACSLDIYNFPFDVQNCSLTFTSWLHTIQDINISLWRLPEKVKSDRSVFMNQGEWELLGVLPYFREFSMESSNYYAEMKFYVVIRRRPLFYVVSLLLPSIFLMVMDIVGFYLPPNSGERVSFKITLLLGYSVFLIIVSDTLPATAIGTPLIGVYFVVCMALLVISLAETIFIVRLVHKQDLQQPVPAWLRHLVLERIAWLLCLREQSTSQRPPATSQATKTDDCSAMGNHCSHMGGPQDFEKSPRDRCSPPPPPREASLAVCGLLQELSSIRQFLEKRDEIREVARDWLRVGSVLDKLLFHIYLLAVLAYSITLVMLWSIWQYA
Sequence of Sigma intracellular receptor 2 (Homo sapiens) (Q5BJF2 whole entry): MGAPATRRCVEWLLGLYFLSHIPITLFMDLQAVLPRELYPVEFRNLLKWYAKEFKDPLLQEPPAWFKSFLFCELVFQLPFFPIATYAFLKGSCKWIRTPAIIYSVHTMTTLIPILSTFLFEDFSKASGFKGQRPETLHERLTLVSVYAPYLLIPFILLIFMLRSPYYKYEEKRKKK

SMILES: CC(=O)Nc1c(F)cc(C(=O)N[C@H]2CC[C@H](O)CC2)cc1O[C@@H](C)c1ccccc1 [GSK046]
- inhibition (Mu-type opioid receptor [1]): 20.4%
- pIC50 [2]: 6.6
- inhibition (Rattus norvegicus): 5.68%
- Kd [3]: 1.62 µM (not active)
- IC50 [4]: > 100 µM
- EC50 (Mu-type opioid receptor [5]): > 100 µM
- IC50 [6]: > 50.1 µM
- IC50 [7]: > 100 µM
- IC50 [8]: > 50.1 µM
- IC50 [9]: > 100 µM
- IC50 [10]: 100 µM
- EC50 [11]: > 50.1 µM
- IC50 [11]: > 50.1 µM
- EC50 [12]: > 100 µM
- IC50 [12]: > 100 µM
- EC50 [13]: > 25.1 µM
- EC50 [14]: > 100 µM
- IC50 [14]: > 100 µM
- IC50 [15]: > 31.6 µM
- EC50 [16]: > 50.1 µM
- IC50 [16]: > 50.1 µM
- IC50 (Acetylcholinesterase): 7.94 µM
- IC50 (Aurora kinase B): > 31.6 µM
- EC50 [17]: > 100 µM
- EC50 [18]: > 100 µM
- IC50 [19]: > 100 µM
- EC50 (D(2) dopamine receptor [20]): > 100 µM
- Ki (D(2) dopamine receptor [20]): > 100 µM
- IC50 (Vasopressin V1a receptor): > 39.8 µM
- IC50 (D(1A) dopamine receptor): > 100 µM
- IC50 [21]: > 50.1 µM
- IC50 [22]: > 100 µM
- EC50 (Adenosine receptor A2a): 31.6 µM
- IC50 (Histamine H1 receptor): > 25.1 µM
- IC50 (Substance-P receptor): > 25.1 µM
- Kd [23]: 30 µM
- inhibition [24]: -6.98%
- inhibition (D(2) dopamine receptor [25]): 25.8%
- inhibition [26]: -8.96%
- inhibition [27]: 11.6%
- Kd [28]: 30 µM
- Kd [29]: 30 µM
- inhibition [30]: -0.94%
- Kd [31]: 1620 nM
- Kd [32]: 30 µM
- inhibition [33]: -0.86%
- inhibition [34]: 17.6%
- inhibition [35]: 0.93%
- IC50 [36]: 98 nM (active)
- Kd (Protein polybromo-1): 30 µM
- Kd [37]: 2080 nM
- Ki [38]: 3.44 µM
- inhibition [39]: 21.4%
- Kd [40]: 30 µM
- Kd [41]: 30 µM
- inhibition [42]: 3.38%
- inhibition [43]: 18.1%
- Kd [44]: 30 µM
- Kd [45]: 33 nM
- inhibition [46]: 9.38%
- Kd [47]: 100 nM
- IC50 [48]: 264 nM (active)
- Kd [49]: 30 µM
